Measurements as given in patent US20240317722A1, “HETEROARYL-3-PIPERIDINEDIONE COMPOUND AND USE THEREOF” (Medshine Discovery Inc., priority 2021, published 2024).
pIC50: −log10 of the molar value. Read-outs that look alike come from different tables or passages of the source.

Key:
[1] = Pharmacokinetics of compounds in mice; format: in vivo, C57BL/6N mice; details: for bioavailability / clearance / Vd / half-life: male, C57BL/6N, mouse, plasma; for bioavailability: read-out: Bioavailability F; for Vd: read-out: Apparent volume of distribution; for half-life: read-out: Elimination half-life (converted)
Excerpt: In this study, C57BL/6N male mice were selected as the test animals, and the LC/MS/MS method was used to quantitatively determine the drug concentration in the plasma of mice intravenously or orally administered the test compounds, so as to evaluate the pharmacokinetic profile of the test compounds in mice.
C57BL/6N mice (male, 20-30 g, 7-10 weeks old, Beijing Vital River).
A clear solution or suspension of the test compound was intravenously injected into C57BL/6N mice (fasted overnight) via tail or given to C57BL/6N mice (fasted overnight) by gavage. For intravenous injection administration, blood was collected from the cheek at 0 h (before administration) and 0.083, 0.25, 0.5, 1, 2, 4, 6, 8, and 24 h after administration. Each sample was collected about 0.05 mL. Heparin sodium was added to anti-coagulate. Plasma samples were collected and placed on wet ice, and centrifuged within 1 hour to separate the plasma (centrifugation conditions: 6000 g, 3 minutes, 2-8° C.). Blood samples were stored in a −80° C. refrigerator before analysis; For oral gavage administration, blood was collected from the cheek at 0 h (before administration) and 0.083, 0.25, 0.5, 1, 2, 4, 6, 8, 24 h after administration. Each sample was collected about 0.05 mL. Heparin sodium was added to anti-coagulate. Plasma samples were collected and placed on wet ice, and centrifuged within 1 hour to separate the plasma (centrifugation conditions: 6000 g, 3 minutes, 2-8° C.). Blood samples were stored in a −80° C. refrigerator before analysis. Through blood drug concentration data at different time points, Phoenix WinNonlin8.2.0 was used to calculate pharmacokinetic parameters, providing parameters such as AUC0-t, AUC0-∞, MRT0-∞, Cmax, Tmax, and T1/2, etc. and their mean and standard deviation.

NCI-H69 = experiment: Anti-proliferative effect in NCI-H69 (CellTiter-Glo); format: cell-based; details: NCI-H69, 3 days; for pIC50: Homo sapiens, 72 h
Procedure: (§1) This assay studied the inhibitory effect of the compounds on cell proliferation by detecting the effect of the test compounds on the in vitro activity of tumor cells NCI-H1581, DMS114, NCI-H69 and NCI-H526.
(§2) The tumor cell lines were cultured in an incubator at 37° C., 5% CO2 or 0% CO2 according to the above culture conditions. The cells were periodically passaged, and cells in logarithmic growth phase were taken for plating. • 2. Cell plating • (1). Cells were stained with trypan blue and viable cells were counted.
(§3) • (3). 100 μL of cell suspension was added to each well of the culture plate, and culture medium without cells was added to the blank control well. • (4). The plate was incubated overnight in an incubator at 37° C., 5% CO2 or 0% CO2, and 100% relative humidity. • 3. Preparation of compound stock solution
(§4) Preparation of 1000× compound stock solution: Compound was dissolved in DMSO to 10 mM, then a portion was taken out and diluted to 1000 times the highest acting concentration. The diluted stock solution was dispensed for later use. • 4. Preparation of 5× compound working solution and treatment of cells with compounds. The working solutions were prepared freshly at each time for use. • (1). Preparation of 5× compound working solution: 119.4 μL of cell culture medium was added to a 96-well plate with a V-shaped bottom. 96 μL of DMSO-cell culture medium mix solution (with DMSO content of 0.5%) was added to subsequent gradient wells. 0.6 μL of the compound from the 1000× compound stock solution was added to the cell culture medium in the 96-well plate, and mixed to uniform with a pipette. A pipette was used to draw 24 μL of the compound-cell culture medium mixture into subsequent wells, and the mixture was mixed well by a pipette each time. • (2). Dosing: 25 μL of 5× compound working solution was added to the cell culture plate. 25 μL of DMSO-cell culture medium mix solution (with DMSO content of 0.5%) was added to the vehicle control and blank control. • (3). The 96-well cell plate was placed back into the incubator and cultured for 3 days. • 5. CellTiter-Glo luminescence cell viability detection
(§5) The following steps were performed according to the instruction of Promega CellTiter-Glo luminescence cell viability detection kit (Promega-G7573). • (1). The CellTiter-Glo buffer was thawed and allowed to stand to reach room temperature; • (2). CellTiter-Glo substrate was allowed to stand to reach room temperature; • (3). 10 mL of CellTiter-Glo buffer was added to CellTiter-Glo substrate in a bottle to dissolve the substrate to formulate CellTiter-Glo working solution; • (4). […] The culture plates were left at room temperature for 10 minutes to stabilize the luminescence signal; • (9). The luminous signal was detected on the 2104 En Vision plate reader. • 6. […]

NCI-H1581 = experiment: Anti-proliferative effect in NCI-H1581 (CellTiter-Glo); format: cell-based; details: NCI-H1581, 3 days; for pIC50: Homo sapiens, 72 h
Procedure: as §1, §2, §3, §4, §5

[2] = administration by gavage, 10 mg/kg

Area under the plasma concentration-time curve (0-inf) [1, 2] [µM·h] | Peak concentration [1, 2] [µM] | Time to peak [1, 2] [h] | Area under the plasma concentration-time curve (0-inf) ([1]; intravenous injection, 1 mg/kg) [µM·h] | bioavailability ([1]; PO 10 mg/kg vs IV 1 mg/kg) [%] | clearance ([1]; intravenous injection, 1 mg/kg) [mL/min/kg] | Vd ([1]; intravenous injection, 1 mg/kg) [L/kg] | half-life ([1]; intravenous injection, 1 mg/kg) [h] | pIC50 (NCI-H69) | pIC50 (NCI-H1581) | Area under the plasma concentration-time curve (0-inf) ([1]; intravenous injection, 2 mg/kg) [µM·h] | bioavailability ([1]; PO 10 mg/kg vs IV 2 mg/kg) [%] | clearance ([1]; intravenous injection, 2 mg/kg) [mL/min/kg] | Vd ([1]; intravenous injection, 2 mg/kg) [L/kg] | half-life ([1]; intravenous injection, 2 mg/kg) [h] | Structure (SMILES) | Max. IR (NCI-H69) [%] | Max. IR (NCI-H1581) [%]
108.89 | 23.27 | 1.00 | 14.34 | 75.9 | 2.3 | 0.35 | 2.71 | 8.21 | 8.28 |  |  |  |  |  | COCCOc1cc(NC(=O)NCc2ccc3c(C4CCC(=O)NC4=O)coc3c2)cc(Cl)c1C (stereo not drawn) [WX005] | 68.41 | 92.19
40.90 | 3.06 | 2.67 |  |  |  |  |  | 8.89 | 8.89 | 37.03 | 22.1 | 1.84 | 0.44 | 5.11 | COCCOc1cc(NC(=O)NCc2ccc3c(C4CCC(=O)NC4=O)noc3c2)cc(Cl)c1C (stereo not drawn) [WX013] | 70.53 | 88.62
